Where a name gives a salt, the structure may show the parent alone.
Key:
[1] = tested on: HT-29 cells; assay: CellTiter-Glo luminescent cell viability assay (ATP content); assay type: cell-based; conditions: Homo sapiens; HT-29, 72 hours; concentration not stated in b112 (FIG. 2: most cytotoxic at 10 mM)
Experimental: Cell viability was also assessed using the CellTiter-Glo R: Assay kit, which measures the amount of ATP to indicate cellular metabolic activity. HT-29 and HCT-116 cells were cultured in a 96-well plate at a density of 2500 cells per well. After 24 hours of seeding, the cells were exposed to various concentrations of IS, including 0.018 mM, 0.037 mM, 0.075 mM. 0.15 mM, 0.31 mM, 0.62 mM, 1.25 mM, 2.5 mM, 5 mM, and 10 mM. Triplicate wells were treated with IS for two different incubation periods: 48 hours and 72 hours. After the respective incubation periods. the assay was performed following the manufacturer's protocol. The details of the protocol can be found in the kit provided by the manufacturer. In summary, luminescence was measured using a Sirius Luminometer V3.2 (Berthold DETECTIONN SYSTEMS) with a measurement delay time of 2 seconds and a measurement time of 5 seconds. Non-treated cells were used as controls, representing 100% metabolically active cells in terms of ATP content.

[2] = tested on: HCT-116 cells; assay: Cell cycle assay, PI flow cytometry; assay type: cell-based, human; conditions: HCT-116, 48 hours, 5 mM and 10 mM (not resolved); increased from 18.1±1.99
Experimental: (§1) The evaluation of the effect of IS on the progression of HCT-116 and HT-29 cell cycle assay involved analysing the G0/G1 phase, Synthesis(S) phase, and G2/M phase. Cells were initially cultured in a 6-well plate with a seeding density of (2×10^5) cells/well in duplicate. After 24 hours of seeding, the cells were treated with varying concentrations of IS (1.25 mM, 5 mM, and 10 mM). Following a 48-hour processing period, the cells were detached using trypsin and washed twice with refrigerated PBS. The resulting cell pellet was then dissolved in 200 ul of chilled PBS and fixed by adding 800 ul of 70% ethanol dropwise. The samples were stored at −20° C. overnight for later use. After the overnight incubation, the cells were centrifuged at 2000 rpm for 5 minutes at 4° C. The pellet was dissolved in 300 ul of PBS, 50 ul of RNase A (100 ug/ml), and 35 ul of Triton X-100 (0.1%), and incubated at 37° C. for 30 minutes. Subsequently, 20 ul of PI was added from a stock solution of 500 μg/ml, and the samples were incubated in the dark for an additional 30 minutes. Flow cytometry (BD Biosciences, FACS Verse, Germany) was employed to measure PI staining in 1×10^3 cells. The Flow Jo software was utilized for the analysis of cell distribution across the different phases of the cell cycle.

[3] = tested on: HT-29 cells; assay: Cell cycle assay, PI flow cytometry; assay type: cell-based, human; conditions: HT-29, 48 hours, 5 mM and 10 mM (not resolved); increased from 14.2±0.5
Experimental: as §1

[4] = tested on: HCT-116 cells; assay: Clonogenic (colony forming) assay; assay type: cell-based, human; conditions: HCT-116, 1.25-10 mM for 48 hours, 10 days colony growth
Experimental: To assess the colony-forming ability of cells after treatment with IS, a colony forming assay was performed. HCT-116 and HT-29 cells were cultured in 6-well plates at a density of 2×10^5 cells per well. After 24 hours of seeding, the cells were exposed to IS at concentrations of 1.25 mM, 5 mM, and 10 mM. Following a 48-hour treatment period, the cells were harvested using trypsin and counted for each treatment. From each treatment group, 400, 800, and 1200 cells were plated and incubated for 10 days in 6-well plates. During the incubation period, the media were replenished every alternate day. After 10 days, the colonies were washed with PBS and stained with 0.5% crystalline violet. The cells were then fixed with 6% glutaraldehyde. The colonies were visualized and counted using ImageJ software. The clonogenic efficiency of the treated cells was compared to that of the untreated cells.

[5] = tested on: HT-29 cells; assay: Cellular imaging (cell morphology); assay type: cell-based, human; conditions: HT-29, 1.25-10 mM, 24, 48, 72 hours
Experimental: To assess the morphological changes of the cells following treatment, HT-29 and HCT-116 cells were cultured in 12-well plates at a concentration of […] cells per well. After 24 hours of seeding, the cells were treated with IS at concentrations of 1.25 mM, 5 mM, and 10 mM. The cells were exposed to IS in triplicate for three different incubation periods: 24 hours, 48 hours, and 72 hours. After the respective incubation periods, the cells were examined using a Nikon microscope equipped with a 20× objective. Images were captured using a digital camera and the NIS-Elements 3.0 software.

[6] = tested on: human adenocarcinoma cells; assay: Comet assay (DNA damage); assay type: cell-based; conditions: cell lysate after IS treatment
Experimental: In the in vitro study, cells were exposed to various doses of indoxyl sulfate ranging from 0.038 mM to 10 mM for three different incubation periods (24 hours, 48 hours, and 72 hours). A decrease in cell proliferation efficiency was observed after 48 hours of treatment, with the most significant effects observed at concentrations of 5 mM and 10 mM of indoxyl sulfate. […] Decrease in cellular ATP content indicates the diminished cellular metabolic activity and may be linked with cell death. Considering these findings. the apoptotic effect of indoxyl sulfate was examined. […] Another study on the osteoblast cell line MC3T3-E1 also confirmed that IS acts as a bone toxin by inducing cell apoptosis and inhibiting differentiation. […] To account for this study. cells were also assessed for oxidative stress in this invention by staining them with […] (DHE) after 48 hours of treatment. […] The potential for IS to cause DNA damage was also investigated.

[7] = tested on: inflammatory cytokines IL-17A, IL-1β and TNF-α; assay: Cytokine study (ELISA of blood samples); assay type: in vivo, mice; conditions: IP and IR, zero, 1 month, 2 month
Experimental: Each group consisted of six mice. […] For the cytokine study, blood samples were collected from the mice. The cytokines of interest, IL-1β, TNF-α, and IL-17A, were analyzed in all groups at three different time points: baseline (time point zero), one month, and two months. The analysis was performed using an ELISA kit from R&D Systems. The experimental procedure for cytokine study followed the instructions provided with the kit. In summary, each well of the ELISA plate was coated with a specific monoclonal antibody against the respective cytokines. Then, 50 ul of standard, control, and sample were added to the appropriate wells. The plate was incubated at room temperature (RT) for 2 hours. After incubation, each well was washed four times with 400 ul of buffer to remove any unbound substances. Subsequently, 100 ul of the secondary antibody conjugate was added to each well and incubated at RT for another 2 hours. Following the second incubation, the wells were washed four times, and 100 ul of substrate solution was added. The plate was then incubated for 30 minutes at RT in the dark. After incubation, 100 ul of stop solution was added to each well to halt the enzymatic reaction. The optical density (OD) of the samples was measured at wavelengths of 450 nm and 570 nm within 30 minutes of adding the stop solution. To obtain the final readings, the absorbance at 570 nm was subtracted from the absorbance at 450 nm.

SMILES: O=S(=O)(O)Oc1c[nH]c2ccccc12 [IS, Indoxyl Sulfate]
- viability at 10000 µM [1]: 19%
- number of cells in the G2/M phase [2]: 22.7±3.2
- number of cells in the G2/M phase [3]: 17.3±0.7
- number of colonies formed compared to control [4]: significant reduction in the number of colonies formed
- cell morphology [5]: rounded morphology, reduced cell numbers, and detachment from the culture substrate
- DNA damage (comet formation) [6]: does not show formation of any comet
- level of IL-1β vs control groups [7]: no significant differences
- level of IL-17A vs control groups [7]: no significant differences
- level of TNF-α vs control groups [7]: no significant differences

— patent publication US20250195468A1, “METHODS AND COMPOSITIONS FOR TREATING COLORECTAL CANCER WITH INDOXYL SULFATE” (National Institute of Immunology, priority 2023, published 2025)
